Like-named read-outs stand apart in the source and are kept apart here.
Legend:
[1] = rat, in vivo
Protocol: (§1) SD-JCL male rats with an average body weight of 250 g were used as test animals. Under pentobarbital anesthesia, the abdomen of each animal was clipped off hairs (20 cm^2: 5 x 4 cm) with an electric clipper and the sample was applied to the denuded area. Using 5 rats, 0.12 ml of venous blood was taken from the tail vein 1, 2, 4 and 6 hours after application of the sample. Each blood specimen was centrifuged and 0.05 ml of the plasma was put in a polyethylene minivial containing 5 ml of a toluenic scintillator and stirred. After standing, the total radioactivity of the plasma sample was measured with a β-ray scintillation spectrometer and the TRH equivalent concentration of the plasma (µg.eq./ml) was calculated.
(§2) The percutaneous absorption of TRH tartrate was evaluated in AUC6 (the area under the blood concentration-time curve during 0 to 6 hours).

in vivo = conditions: male, SD-JCL, rat, topical or ocular
[2] = Percutaneous absorption test in rats, TRH equivalent plasma concentration from total radioactivity (3H-labeled TRH); type: in vivo, SD-JCL male rats; conditions: additive in propylene glycol preparation of TRH tartrate (Comparative Example 2)
Protocol: as §1, §2

[3] = rat, in vivo; remark: listed apart in the source
Protocol: 3 mg of clonidine, an antihypertensive drug, was dissolved in a mixture of 20 mg of lauric acid, one of the percutaneous absorption promoting agents according to this invention, and 177 mg of propylene glycol to prepare a coating sample.
A percutaneous absorption test was carried out in male SD-JCL rats with an average body weight of 250 g. Under pentobarbital anesthesia, the abdomen of each rat was clipped of hairs with an electric clipper and the sample was coated on the denuded abdominal area (5 x 4 cm).
The collected venous blood was centrifuged and 0.2 ml of the plasma was extracted with 1 ml of 0.01 N-NaOH and 5 ml of chloroform. From a 4 ml portion of the chloroform layer, the chloroform was distilled off and the residue was dissolved by addition of 0.2ml of 0.05 M sodium acetate-acetonitrile-tetrahydrofuran (70:30:0.2, v/v). A 50 µl portion of the solution was applied to a liquid chromatograph to determine the concentration of clonidine. The µ-Bondapak Cl8 column was used for this liquid chromatography. The percutaneous absorption of clonidine was evaluated in terms of AUC6 (area under the blood concentration-time curve of clonidine during 0 to 6 hours) and its multiple over the [formula] of the preparation of Comparative Example 1 was calculated.

[4] = Percutaneous absorption test in rats, TRH equivalent plasma concentration from total radioactivity (3H-labeled TRH)

For `NC(=O)C1CCCN1C(=O)C(Cc1c[nH]cn1)NC(=O)C1CCC(=O)O1` [DN-1417, y-butyrolactone-y-carbonyl-L-histidyl-L-prolinamide], the “AUC6 (the area under the blood concentration-time curve during 0 to 6 hours)” value [1] was 0.3 ug.eq.hr/ml.
In the case of `CCNC(=O)[C@@H]1CCCN1C(=O)[C@H](CCCNC(=N)N)NC(=O)[C@H](CC(C)C)NC(=O)[C@@H](CC(C)C)NC(=O)[C@H](Cc1ccc(O)cc1)NC(=O)[C@H](CO)NC(=O)[C@H](Cc1c[nH]c2ccccc12)NC(=O)[C@H](Cc1c[nH]cn1)NC(=O)[C@@H]1CCC(=O)N1` [TAP-144], the AUC(0-t) (in vivo) is reported as 0.5 ng·h/mL.
For `CCCCCCCCCCCCCC(=O)OC(C)C` [isopropyl myristate], the “absorption promoting effect of the additive” value [2] was “no absorption promoting effect”.
With `CCCCCCCCCCCC(=O)O` [lauric acid] the “effectiveness of the percutaneous absorption promoting agent for clonidine” value (from here on “effectiveness”) [3] was “ineffective”.
In the case of `CCCCCCCCCCCCN` [laurylamine], the “effectiveness” value [3] is reported as “ineffective”.
For `CCCCCCCC/C=C\CCCCCCCC(N)=O` [oleamide], the “effectiveness” value [3] was “ineffective”.
In the case of `CCCCCCCC/C=C\CCCCCCCC(=O)O` [oleic acid], the “effectiveness” value [3] is reported as “ineffective”.
In the case of “L-pyroglutamyl-L-histidyl-L-prolinamide [TRH tartrate]”, the “AUC6 (the area under the blood concentration-time curve during 0 to 6 hours)” value ([4]; Comparative Example 1 (TRH tartrate in propylene glycol, no absorption promoter), restated in Example 5) is reported as 0.16 ug.eq.hr/ml, the “AUC6 (the area under the blood concentration-time curve during 0 to 6 hours)” value ([4]; Comparative Example 6: 0.8 mg TRH tartrate in 179.2 mg propylene glycol + 20 mg caprylyl alcohol (C8)) is reported as 0.19 pg.eq/ml and the “multiple of the AUC6 value over the control preparation of Comparative Example 1” value ([4]; Example 1 preparation (20 mg oleic acid) vs Comparative Example 1 (no absorption promoter)) is reported as “approximately 8 times”. The “multiple of the AUC6 value over the control preparation of Comparative Example 1” value ([4]; Example 3 (20 mg lauric acid, ethanol wiping) vs Comparative Example 1) was 14 times, the “AUC6 (the area under the blood concentration-time curve during 0 to 6 hours)” value ([4]; Example 3: 0.8 mg TRH tartrate in 179.2 mg propylene glycol + 20 mg lauric acid, site wiped 5 times with ethanol-sanitary cotton before application) was 2.22 µg.eq.hr/ml and the “multiple of the AUC6 value over the control preparation of Comparative Example 1” value ([4]; Example 4 (20 mg lauric acid, horny layer stripped) vs Comparative Example 1) was 38 times. The “AUC6 (the area under the blood concentration-time curve during 0 to 6 hours)” value ([4]; Example 4: 0.8 mg TRH tartrate in 179.2 mg propylene glycol + 20 mg lauric acid, horny layer stripped 3 times with cellophane tape before application) was 6.06 ug.eq.hr/ml.
With “L-pyroglutamyl-L-histidyl-L-prolinamide [TRH]” the “multiple of the AUC6 value over Comparative Example 1” value ([4]; Example 5 (TRH, 30 mg oleic acid) vs Comparative Example 1) was 8.7 times and the “AUC6 (the area under the blood concentration-time curve during 0 to 6 hours)” value ([4]; Example 5: 0.5 mg TRH in 169.5 mg propylene glycol + 30 mg oleic acid) was 1.4 µg.eq.hr/ml.
